What was measured:
Assay type in all cases: in vivo
[1] = test system: barnyardgrass (Echinochloa crus-galli); experiment: Test G Pre-Emergence Protocol; settings: Echinochloa crus-galli, pre-emergence, 312 h, evaluated after 13 days; for pest or weed control at 15.625 g/ha: 15.625 g ai/ha, read-out: Barnyard grass damage rating (100=total damage to plant; 0=no damage to plant); for pest or weed control at 62.5 g/ha: 62.5 g ai/ha, 100=total damage to plant, 0=no damage to plant, read-out: plant damage rating, Barnyardgrass; for pest or weed control at 250 g/ha: 250 g ai/ha, read-out: Barnyardgrass damage rating (100=total damage to plant; 0=no damage to plant)
Outline: (§1)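 Under a 24/16° C day/night regime with 14 h light and 65% humidity, sown pots were sprayed after one day with compound (15.625, 62.5 or 250 g/ha; 50:50 acetone/water, 0.5% Tween 20). Damage was assessed visually 13 days later, 0 to 100.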

corn (Zea mays) [2] = experiment: Test G Pre-Emergence Protocol; settings: Zea mays, pre-emergence, 312 h, evaluated after 13 days; for plant injury at 15.625 g/ha: 15.625 g ai/ha; for plant injury at 15.625 g/ha / plant injury at 250 g/ha: read-out: Corn damage rating (100=total damage to plant; 0=no damage to plant); for plant injury at 62.5 g/ha: 62.5 g ai/ha, 100=total damage to plant, 0=no damage to plant, read-out: plant damage rating, Corn; for plant injury at 250 g/ha: 250 g ai/ha
Outline: as §1

[3] = test system: giant foxtail (Setaria faberi); experiment: Test G Pre-Emergence Protocol; settings: Setaria faberi, pre-emergence, 312 h, evaluated after 13 days; for pest or weed control at 15.625 g/ha: 15.625 g ai/ha; for pest or weed control at 15.625 g/ha / pest or weed control at 250 g/ha: read-out: Foxtail, Giant damage rating (100=total damage to plant; 0=no damage to plant); for pest or weed control at 62.5 g/ha: 62.5 g ai/ha, 100=total damage to plant, 0=no damage to plant, read-out: plant damage rating, Foxtail, Giant; for pest or weed control at 250 g/ha: 250 g ai/ha
Outline: as §1

[4] = test system: ivy-leaved morning glory (Ipomoea hederacea); experiment: Test G Pre-Emergence Protocol; settings: Ipomoea, pre-emergence, 312 h, evaluated after 13 days; for pest or weed control at 15.625 g/ha: 15.625 g ai/ha, read-out: Morning-glory, Ivy-leaved damage rating (100=total damage to plant; 0=no damage to plant); for pest or weed control at 62.5 g/ha: 62.5 g ai/ha, 100=total damage to plant, 0=no damage to plant, read-out: plant damage rating, Morningglory, Ivy-leaved; for pest or weed control at 250 g/ha: 250 g ai/ha, read-out: Morningglory, Ivy-leaved damage rating (100=total damage to plant; 0=no damage to plant)
Outline: as §1

[5] = test system: redroot pigweed (Amaranthus retroflexus); experiment: Test G Pre-Emergence Protocol; settings: Amaranthus retroflexus, pre-emergence, 312 h, evaluated after 13 days; for pest or weed control at 15.625 g/ha: 15.625 g ai/ha; for pest or weed control at 15.625 g/ha / pest or weed control at 250 g/ha: read-out: Pigweed, Redroot damage rating (100=total damage to plant; 0=no damage to plant); for pest or weed control at 62.5 g/ha: 62.5 g ai/ha, 100=total damage to plant, 0=no damage to plant, read-out: plant damage rating, Pigweed, Redroot; for pest or weed control at 250 g/ha: 250 g ai/ha
Outline: as §1

[6] = test system: velvetleaf (Abutilon theophrasti); experiment: Test G Pre-Emergence Protocol; settings: Abutilon theophrasti, pre-emergence, 312 h, evaluated after 13 days; for pest or weed control at 15.625 g/ha: 15.625 g ai/ha; for pest or weed control at 15.625 g/ha / pest or weed control at 250 g/ha: read-out: Velvetleaf damage rating (100=total damage to plant; 0=no damage to plant); for pest or weed control at 62.5 g/ha: 62.5 g ai/ha, 100=total damage to plant, 0=no damage to plant, read-out: plant damage rating, Velvetleaf; for pest or weed control at 250 g/ha: 250 g ai/ha
Outline: as §1

[7] = test system: barnyardgrass (Echinochloa crus-galli); experiment: Test G Post-Emergence Protocol; settings: Echinochloa crus-galli, post-emergence, 312 h; for pest or weed control at 15.625 g/ha: 15.625 g ai/ha, evaluated after 13 days (100=total damage to plant; 0=no damage to plant), read-out: Barnyardgrass damage rating; for pest or weed control at 62.5 g/ha: 62.5 g ai/ha, read-out: Barnyardgrass damage rating (100=total damage to plant; 0=no damage to plant); for pest or weed control at 62.5 g/ha / pest or weed control at 250 g/ha: evaluated after 13 days; for pest or weed control at 250 g/ha: 250 g ai/ha, read-out: damage to plant, Barnyardgrass (100=total damage to plant; 0=no damage to plant)
Outline: (§2)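 Foliar application was made 8 days after sowing, using an aqueous spray of the active in acetone/water (50:50) with 0.5% Tween 20, at doses of 15.625, 62.5 or 250 g/ha. Injury was assessed 13 days later, where 100 meant the plant was fully damaged.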

corn (Zea mays) [8] = experiment: Test G Post-Emergence Protocol; settings: Zea mays, post-emergence, 312 h; for plant injury at 15.625 g/ha: 15.625 g ai/ha, evaluated after 13 days (100=total damage to plant; 0=no damage to plant), read-out: Corn damage rating; for plant injury at 62.5 g/ha: 62.5 g ai/ha, read-out: Corn damage rating (100=total damage to plant; 0=no damage to plant); for plant injury at 62.5 g/ha / plant injury at 250 g/ha: evaluated after 13 days; for plant injury at 250 g/ha: 250 g ai/ha, read-out: damage to plant, Corn (100=total damage to plant; 0=no damage to plant)
Outline: as §2

[9] = test system: giant foxtail (Setaria faberi); experiment: Test G Post-Emergence Protocol; settings: Setaria faberi, post-emergence, 312 h; for pest or weed control at 15.625 g/ha: 15.625 g ai/ha, evaluated after 13 days (100=total damage to plant; 0=no damage to plant), read-out: Foxtail, Giant damage rating; for pest or weed control at 62.5 g/ha: 62.5 g ai/ha, read-out: Foxtail, Giant damage rating (100=total damage to plant; 0=no damage to plant); for pest or weed control at 62.5 g/ha / pest or weed control at 250 g/ha: evaluated after 13 days; for pest or weed control at 250 g/ha: 250 g ai/ha, read-out: damage to plant, Foxtail, Giant (100=total damage to plant; 0=no damage to plant)
Outline: as §2

[10] = test system: ivy-leaved morning glory (Ipomoea hederacea); experiment: Test G Post-Emergence Protocol; settings: Ipomoea, post-emergence, 312 h; for pest or weed control at 15.625 g/ha: 15.625 g ai/ha, evaluated after 13 days (100=total damage to plant; 0=no damage to plant), read-out: Morningglory, Ivy-leaved damage rating; for pest or weed control at 62.5 g/ha: 62.5 g ai/ha, read-out: Morningglory, Ivy-leaved damage rating (100=total damage to plant; 0=no damage to plant); for pest or weed control at 62.5 g/ha / pest or weed control at 250 g/ha: evaluated after 13 days; for pest or weed control at 250 g/ha: 250 g ai/ha, read-out: damage to plant, Morningglory, Ivy-leaved (100=total damage to plant; 0=no damage to plant)
Outline: as §2

[11] = test system: redroot pigweed (Amaranthus retroflexus); experiment: Test G Post-Emergence Protocol; settings: Amaranthus retroflexus, post-emergence, 312 h; for pest or weed control at 15.625 g/ha: 15.625 g ai/ha, evaluated after 13 days (100=total damage to plant; 0=no damage to plant), read-out: Pigweed, Redroot damage rating; for pest or weed control at 62.5 g/ha: 62.5 g ai/ha, read-out: Pigweed, Redroot damage rating (100=total damage to plant; 0=no damage to plant); for pest or weed control at 62.5 g/ha / pest or weed control at 250 g/ha: evaluated after 13 days; for pest or weed control at 250 g/ha: 250 g ai/ha, read-out: damage to plant, Pigweed, Redroot (100=total damage to plant; 0=no damage to plant)
Outline: as §2

[12] = test system: velvetleaf (Abutilon theophrasti); experiment: Test G Post-Emergence Protocol; settings: Abutilon theophrasti, post-emergence, 312 h; for pest or weed control at 15.625 g/ha: 15.625 g ai/ha, evaluated after 13 days (100=total damage to plant; 0=no damage to plant), read-out: Velvetleaf damage rating; for pest or weed control at 62.5 g/ha: 62.5 g ai/ha, read-out: Velvetleaf damage rating (100=total damage to plant; 0=no damage to plant); for pest or weed control at 62.5 g/ha / pest or weed control at 250 g/ha: evaluated after 13 days; for pest or weed control at 250 g/ha: 250 g ai/ha, read-out: damage to plant, Velvetleaf (100=total damage to plant; 0=no damage to plant)
Outline: as §2

CN1C[C@@H](c2ccc(C(F)(F)F)cc2)[C@H](C(=O)Nc2ccn(C)n2)C1=O (racemic) [Compound 1615]
0%: pest or weed control at 15.625 g/ha [1] | pest or weed control at 62.5 g/ha [1] | pest or weed control at 250 g/ha [1] | plant injury at 15.625 g/ha (corn (Zea mays) [2]) | plant injury at 62.5 g/ha (corn (Zea mays) [2]) | plant injury at 250 g/ha (corn (Zea mays) [2]) | pest or weed control at 15.625 g/ha [3] | pest or weed control at 62.5 g/ha [3] | pest or weed control at 250 g/ha [3] | pest or weed control at 15.625 g/ha [4] | pest or weed control at 62.5 g/ha [4] | pest or weed control at 250 g/ha [4] | pest or weed control at 15.625 g/ha [5] | pest or weed control at 62.5 g/ha [5] | pest or weed control at 250 g/ha [5] | pest or weed control at 15.625 g/ha [6] | pest or weed control at 62.5 g/ha [6] | pest or weed control at 250 g/ha [6] | pest or weed control at 15.625 g/ha [7] | pest or weed control at 62.5 g/ha [7] | pest or weed control at 250 g/ha [7] | plant injury at 15.625 g/ha (corn (Zea mays) [8]) | plant injury at 62.5 g/ha (corn (Zea mays) [8]) | plant injury at 250 g/ha (corn (Zea mays) [8]) | pest or weed control at 15.625 g/ha [9] | pest or weed control at 62.5 g/ha [9] | pest or weed control at 250 g/ha [9] | pest or weed control at 15.625 g/ha [10] | pest or weed control at 62.5 g/ha [10] | pest or weed control at 250 g/ha [10] | pest or weed control at 15.625 g/ha [11] | pest or weed control at 62.5 g/ha [11] | pest or weed control at 250 g/ha [11] | pest or weed control at 15.625 g/ha [12] | pest or weed control at 62.5 g/ha [12] | pest or weed control at 250 g/ha [12]

Cc1cc(NC(=O)[C@@H]2C(=O)N(C)C[C@H]2c2ccc(C(F)(F)F)cc2)ccn1 (racemic) [Compound 1600]
0%: pest or weed control at 15.625 g/ha [1] | pest or weed control at 62.5 g/ha [1] | pest or weed control at 250 g/ha [1] | plant injury at 15.625 g/ha (corn (Zea mays) [2]) | plant injury at 62.5 g/ha (corn (Zea mays) [2]) | plant injury at 250 g/ha (corn (Zea mays) [2]) | pest or weed control at 15.625 g/ha [3] | pest or weed control at 62.5 g/ha [3] | pest or weed control at 250 g/ha [3] | pest or weed control at 15.625 g/ha [4] | pest or weed control at 62.5 g/ha [4] | pest or weed control at 250 g/ha [4] | pest or weed control at 15.625 g/ha [5] | pest or weed control at 62.5 g/ha [5] | pest or weed control at 250 g/ha [5] | pest or weed control at 15.625 g/ha [6] | pest or weed control at 62.5 g/ha [6] | pest or weed control at 250 g/ha [6] | pest or weed control at 15.625 g/ha [7] | pest or weed control at 62.5 g/ha [7] | pest or weed control at 250 g/ha [7] | plant injury at 15.625 g/ha (corn (Zea mays) [8]) | plant injury at 62.5 g/ha (corn (Zea mays) [8]) | plant injury at 250 g/ha (corn (Zea mays) [8]) | pest or weed control at 15.625 g/ha [9] | pest or weed control at 62.5 g/ha [9] | pest or weed control at 250 g/ha [9] | pest or weed control at 15.625 g/ha [10] | pest or weed control at 62.5 g/ha [10] | pest or weed control at 250 g/ha [10] | pest or weed control at 15.625 g/ha [11] | pest or weed control at 62.5 g/ha [11] | pest or weed control at 250 g/ha [11] | pest or weed control at 15.625 g/ha [12] | pest or weed control at 62.5 g/ha [12] | pest or weed control at 250 g/ha [12]

From patent publication US12077503B2, “Substituted cyclic amides and their use as herbicides” (FMC CORPORATION, priority 2015, dated 2024)
